Among the test systems are A498 renal; HCT-15 colon; HT29 colon; MALME-3M melanoma; MCF7 breast; MDA-MB-231 breast; MDA-MB-435; OVCAR-3 ovarian; OVCAR-4 ovarian; SF-295 CNS.
Holding throughout (test): DTP human tumour cell line panel, 48 h

Where “and” joins values, the source holds several entries; their conditions need not be identical. Equal entries are not always repeated.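 Briefly, cells in 96-well plates were exposed to five compound concentrations for 48 h, and endpoints were estimated by linear interpolation. GI50 = concentration required for 50% inhibition of growth. Definition used: TGI = concentration required for complete inhibition of growth.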 Bounds are passed on as bounds.

Consider `CC1(C)N=C(N)N=C(N)N1c1ccc(OCC(=O)N2CCOCC2)c(Cl)c1`, for which the GI50 is greater than 100 µM in the assay with A498 renal; greater than 100 µM with HCT-15 colon; 0.66 µM in the assay on HT29 colon; 6.17 µM with MALME-3M melanoma; 1.36 µM in the assay on MCF7 breast; greater than 100 µM with MDA-MB-231 breast. For the same compound, the GI50 is 0.565 µM in the assay on MDA-MB-435, 5.63 µM with OVCAR-3 ovarian, greater than 100 µM with OVCAR-4 ovarian and 0.561 µM in the assay with SF-295 CNS. Besides, the TGI with A498 renal, in the assay on HCT-15 colon, with HT29 colon, with MALME-3M melanoma, in the assay with MCF7 breast and in the assay with MDA-MB-231 breast was greater than 100 µM in each case. The TGI in the assay with MDA-MB-435, in the assay on OVCAR-3 ovarian, with OVCAR-4 ovarian and with SF-295 CNS was greater than 100 µM throughout.
On to `COc1cc(OC)c2cc(C(=O)O)c(=O)oc2c1`, for which the GI50 was greater than 21.4 µM with A498 renal; greater than 100 µM in the assay on HCT-15 colon; greater than 100 µM with HT29 colon; greater than 100 µM in the assay on MALME-3M melanoma; greater than 100 µM in the assay on MCF7 breast; greater than 100 µM with MDA-MB-231 breast. Moreover, the GI50 with MDA-MB-435 was greater than 100 µM; in the assay with OVCAR-3 ovarian, greater than 100 µM; in the assay on OVCAR-4 ovarian, greater than 100 µM; in the assay with SF-295 CNS, 42.2 µM. The TGI in the assay with A498 renal was greater than 75 µM; with HCT-15 colon it was greater than 100 µM; in the assay on HT29 colon, greater than 100 µM; in the assay on MALME-3M melanoma, greater than 100 µM; in the assay with MCF7 breast, greater than 100 µM; in the assay with MDA-MB-231 breast, greater than 100 µM. The TGI in the assay with MDA-MB-435, with OVCAR-3 ovarian, in the assay with OVCAR-4 ovarian and in the assay on SF-295 CNS was greater than 100 µM in each case.
With `COc1cc(C2CC(c3ccc(Nc4ccnc5cc(Cl)ccc45)cc3)=NN2C=O)cc(OC)c1OC` (stereo not drawn), the GI50 was 15.3 µM with A498 renal; 3.56 µM with HCT-15 colon; 2.83 µM in the assay with HT29 colon; 3.2 µM in the assay on MALME-3M melanoma; 3.23 µM with MCF7 breast; 4.39 µM in the assay on MDA-MB-231 breast. Moreover, the GI50 was 2.1 µM in the assay with MDA-MB-435, 1.91 µM in the assay with OVCAR-3 ovarian, 3.19 µM in the assay with OVCAR-4 ovarian and 5.63 µM in the assay with SF-295 CNS. In addition, the total growth inhibition concentration (TGI) with A498 renal is 49.5 µM; in the assay with HCT-15 colon, greater than 100 µM; in the assay with HT29 colon, 7.17 µM; in the assay on MALME-3M melanoma, 8.32 µM; with MCF7 breast it was greater than 100 µM; in the assay on MDA-MB-231 breast, 54 µM. For the same compound, the total growth inhibition concentration (TGI) in the assay on MDA-MB-435 turned out to be 5.4 µM; in the assay with OVCAR-3 ovarian, 3.4 µM; with OVCAR-4 ovarian, 13.3 µM; in the assay with SF-295 CNS it was 27.7 µM.
Turning to `Cn1c(=O)c2[nH]c(C3CC(=O)CC(c4nc5c([nH]4)c(=O)n(C)c(=O)n5C)N3)nc2n(C)c1=O` (stereo not drawn), the total growth inhibition concentration (TGI) in the assay with A498 renal, in the assay with HCT-15 colon, in the assay with HT29 colon, in the assay on MALME-3M melanoma, in the assay with MCF7 breast and in the assay on MDA-MB-231 breast was greater than 100 µM throughout. Moreover, the TGI with MDA-MB-435, in the assay with OVCAR-3 ovarian, with OVCAR-4 ovarian and with SF-295 CNS was greater than 100 µM each time.
As to `COc1ccc(Cn2cc3c(c2-c2ccc(O)cc2)CCc2cnoc2-3)cc1`, the GI50 in the assay on A498 renal was 0.203 µM; in the assay on HCT-15 colon, 0.395 µM; in the assay with HT29 colon it was 0.587 µM; with MCF7 breast, 0.333 µM; in the assay on MDA-MB-231 breast, 0.699 µM; with MDA-MB-435 it was 0.0737 µM. Moreover, the concentration for 50% growth inhibition (GI50) is 0.221 µM in the assay on OVCAR-3 ovarian, 1.76 µM in the assay with OVCAR-4 ovarian and 0.225 µM in the assay on SF-295 CNS. Also, the TGI with A498 renal came out at 0.766 µM; in the assay on HCT-15 colon it was 21.6 µM; in the assay with HT29 colon, 4.79 µM; in the assay with MCF7 breast it was 15.5 µM; with MDA-MB-231 breast, 13.3 µM; in the assay on MDA-MB-435, 0.365 µM. Besides, the results for the TGI in the assay on OVCAR-3 ovarian, in the assay with OVCAR-4 ovarian and in the assay on SF-295 CNS were 0.557 µM, 19.6 µM and 2.49 µM, respectively.
As for `Oc1ccccc1Nc1nc2ccccc2c2occc12`, the GI50 is 12.8 µM in the assay on HCT-15 colon; 25.2 µM in the assay on MCF7 breast; 10.1 µM with MDA-MB-231 breast; 9.25 µM in the assay on MDA-MB-435; 2.48 µM in the assay on OVCAR-3 ovarian; 10.8 µM in the assay on OVCAR-4 ovarian. Also, in the assay with SF-295 CNS, the GI50 is 3.71 µM. Also, the TGI with HCT-15 colon stood at 31.7 µM; in the assay on MCF7 breast, 51.8 µM; in the assay on MDA-MB-231 breast it was 22.3 µM; in the assay on MDA-MB-435 it was 21.2 µM; in the assay on OVCAR-3 ovarian, 16.3 µM; in the assay on OVCAR-4 ovarian it was 31.4 µM. In the assay on SF-295 CNS, this compound returned a concentration for total growth inhibition (TGI) of 16.1 µM.
In the case of `CN1C(=O)c2cc([N+](=O)[O-])ccc2[C@H]2C(=O)c3cc4c(cc3[C@H]21)OCO4`, the GI50 in the assay with A498 renal is 0.257 µM; in the assay with HCT-15 colon, 0.19 µM; with HT29 colon, 0.179 µM; with MCF7 breast, 0.118 µM; in the assay with MDA-MB-231 breast it was 0.36 µM; in the assay on MDA-MB-435, 0.167 µM. For the same compound, the GI50 in the assay on OVCAR-3 ovarian is 0.0751 µM; in the assay with OVCAR-4 ovarian it was 0.68 µM; in the assay on SF-295 CNS, less than 0.01 µM. For the same compound, the TGI is 0.528 µM in the assay with A498 renal; greater than 50 µM in the assay on HCT-15 colon; greater than 43.2 µM in the assay with HT29 colon; 0.451 µM in the assay on MCF7 breast; 4.71 µM with MDA-MB-231 breast; 2.72 µM with MDA-MB-435. For the same compound, the TGI with OVCAR-3 ovarian is 0.455 µM; with OVCAR-4 ovarian it was greater than 100 µM; with SF-295 CNS, 1.01 µM.
As to `COc1ccc2cc3[n+](cc2c1OC)CCc1cc2c(cc1-3)OCO2`, the TGI in the assay on A498 renal is greater than 307 µM; in the assay on HCT-15 colon it was greater than 325 µM; in the assay with HT29 colon it was > 100 µM and > 92.7 µM and 87.6 µM; in the assay with MALME-3M melanoma, 27.8 µM [middle of 5 runs]; in the assay with MCF7 breast, > 100 µM and > 88.3 µM and 126 µM; with MDA-MB-231 breast, greater than 100 µM. Further, the total growth inhibition concentration (TGI) in the assay on MDA-MB-435 was 25.8 µM and 27 µM and 40.5 µM; in the assay with OVCAR-4 ovarian, 93.7 µM and > 100 µM and 62 µM; with SF-295 CNS, > 100 µM and 147 µM. Further, the GI50 with HCT-15 colon is > 100 µM and 216 µM; in the assay with HT29 colon it was 23.7 µM; with MALME-3M melanoma it was 2.24 µM and 5.1 µM; with MDA-MB-231 breast it was 15.9 µM; with MDA-MB-435, 7.35 µM.
On to `Cc1ccc(/C=C/C(=O)c2ccc(N)cc2)c(C)c1`, for which the GI50 in the assay with A498 renal was 13.6 µM; with MALME-3M melanoma it was 1.87 µM; in the assay with MCF7 breast, 8.29 µM; in the assay on MDA-MB-231 breast, 2.68 µM; in the assay on MDA-MB-435 it was 4.01 µM; with OVCAR-4 ovarian, 2.09 µM. For the same compound, the GI50 in the assay on SF-295 CNS was 19.8 µM. Further, the concentration for total growth inhibition (TGI) in the assay on A498 renal is 27.5 µM; in the assay with MALME-3M melanoma it was 3.57 µM; in the assay with MCF7 breast, 37.2 µM; in the assay on MDA-MB-231 breast, 6.75 µM; in the assay on MDA-MB-435, 15.5 µM; in the assay with OVCAR-4 ovarian, 5 µM. The total growth inhibition concentration (TGI) with SF-295 CNS was 40.2 µM.
With `CCCC(=O)Nc1cc([N+](=O)[O-])c([N+](=O)[O-])cc1OC`, the TGI is 32.5 µM in the assay on A498 renal; greater than 100 µM in the assay with HCT-15 colon; 29.3 µM with HT29 colon; greater than 100 µM in the assay with MCF7 breast; 38.9 µM in the assay on MDA-MB-231 breast; 33.3 µM with MDA-MB-435. The values for the concentration for total growth inhibition (TGI) in the assay with OVCAR-3 ovarian, in the assay with OVCAR-4 ovarian and in the assay on SF-295 CNS were 27.8 µM, 33.6 µM and 21.7 µM, respectively.
As for `COC(=O)c1oc2c(O)c(OC)c(Br)cc2c1C`, the GI50 in the assay with A498 renal is 32.7 µM; with HCT-15 colon, 17.6 µM; in the assay on HT29 colon it was 15.7 µM; with MCF7 breast it was 27.1 µM; with MDA-MB-231 breast, 16.5 µM; in the assay on MDA-MB-435 it was 29 µM. Also, the GI50 in the assay with OVCAR-3 ovarian is 23.6 µM; in the assay on SF-295 CNS it was 31 µM. Besides, the TGI in the assay on A498 renal is 65.8 µM; in the assay on HCT-15 colon, 35.5 µM; in the assay with HT29 colon, 30.4 µM; in the assay on MCF7 breast it was greater than 100 µM; with MDA-MB-231 breast it was 37 µM; with MDA-MB-435 it was 65.4 µM. Moreover, the values for the total growth inhibition concentration (TGI) in the assay with OVCAR-3 ovarian and in the assay on SF-295 CNS were 43.5 µM and 70.2 µM, respectively.
Regarding `COc1cc(-n2cc(-c3ccc(F)cc3)[nH]c2=S)cc(OC)c1OC`, the GI50 with HCT-15 colon is greater than 100 µM; in the assay on HT29 colon, greater than 100 µM; in the assay with MALME-3M melanoma it was greater than 100 µM; in the assay on MCF7 breast it was 55.9 µM; in the assay on MDA-MB-231 breast it was 36.4 µM; in the assay with MDA-MB-435 it was greater than 100 µM. Also, the values for the GI50 in the assay on OVCAR-3 ovarian, in the assay on OVCAR-4 ovarian and in the assay with SF-295 CNS were greater than 100 µM, greater than 100 µM and 47 µM, respectively. Besides, the total growth inhibition concentration (TGI) in the assay on HCT-15 colon, in the assay on HT29 colon, in the assay with MALME-3M melanoma, with MCF7 breast, in the assay on MDA-MB-231 breast and with MDA-MB-435 was greater than 100 µM in each case. Also, the TGI in the assay with OVCAR-3 ovarian, in the assay on OVCAR-4 ovarian and in the assay with SF-295 CNS was greater than 100 µM each time.
Turning to `O=C1Nc2ccccc2/C1=C/c1ccccc1`, the concentration for total growth inhibition (TGI) in the assay with A498 renal is 30.5 µM; in the assay on HCT-15 colon, 35.4 µM; with HT29 colon it was 48 µM; with MCF7 breast, 23.7 µM; with MDA-MB-231 breast it was 46.8 µM; in the assay on MDA-MB-435, 33.2 µM. In addition, the TGI is 33.7 µM in the assay with OVCAR-3 ovarian, 83 µM in the assay on OVCAR-4 ovarian and 36.1 µM with SF-295 CNS.
`Cc1nc(N)sc1N=Nc1cc(Cl)c([N+](=O)[O-])cc1Cl`: the concentration for total growth inhibition (TGI) came out at 79.3 µM with HCT-15 colon; 28.7 µM in the assay on HT29 colon; 32.7 µM in the assay on MALME-3M melanoma; 68.8 µM in the assay on MCF7 breast; 45.9 µM with MDA-MB-231 breast; 42.1 µM in the assay on MDA-MB-435. Moreover, the concentration for total growth inhibition (TGI) in the assay with OVCAR-3 ovarian is 40 µM; in the assay with SF-295 CNS it was 54.6 µM.

The record behind these values is PubChem BioAssay (NCI).
